These results are taken from US10793864B2, “Methods and compositions for assessing viral nuclear localization” (GEORGE MASON UNIVERSITY, priority 2015, dated 2020).

“Also recorded” adds a separate entry of the source.

Holding throughout (format): cell-based
Data set [1] concerns HIV-1NL4-3. Kind of data set: HIV-1 replication measured by p24 release in CEM-SS T cells. The note with it: CEM-SS T cells pre-treated 1 hour, infected with HIV-1NL4-3. How it is done: (§1) Briefly, CEM-SS T cells were pre-treated with DMSO or CK548 for 1 hour, and then infected with HIV-1NL4-3. Viral replication was measured by p24 release (see FIG. 5A). Drug cytotoxicity was meaured in CK548-treated and infected cells by PI staining and flow cytometry (see FIG. 5B). Shown is the percentage of PI-positive cells. […] Cells were infected for 2 hours, washed, and cultured in the presence of the drug for 48 hours. Total cellular DNA was extracted at 48 hours post infection and then PCR-amplified to quantify viral DNA (for results see FIG. 5C). Viral 2-LTR-circles were also measured (see FIG. 5D). The relative ratio of 2-LTR circles to viral total DNA was also plotted.

Data set [2] relates to CEM-SS T cells. Kind of data set: Drug cytotoxicity by PI staining and flow cytometry. To be noted: CK548-treated and infected CEM-SS T cells; at 50 μM and below. How it is done: as §1
(In flow cytometry, cells or beads pass a laser one at a time.)

The subject of data set [3] is single-cycle HIV-1(Env) pseudotyped with HIV-1 gp160. Kind of data set: Viral nuclear migration, 2-LTR circles measured after single-cycle HIV-1 infection. To be noted: CEM-SS T cells, 48 hours post infection. How it is done:
as §1
(§2) The nuclear migration assay was performed in two CEM-SS-based cells, shArp-12 and shArp-13, which we recently constructed. In both shArp-12 and shArp-13, the actin branching factor Arp3 was stably knockdown (80% knockdown). […] We will re-measure the nuclear entry defect by BLNMA. […] We will also perform BLNMA to confirm the phenotype.

Data set [4] has the same test system. Kind of data set: PCR quantification of viral DNA after single-cycle HIV-1 infection. To be noted: CEM-SS T cells, 48 hours post infection. How it is done: as §1, §2

Turning to `O=C1CSC(c2cccc(Br)c2)N1c1cc(Cl)ccc1O` (stereo not shown) [CK548], the “HIV-1 infection (viral replication by p24 release)” value in data set [1] is reported as “inhibits HIV-1 infection”. Further, the “Drug cytotoxicity (percentage of PI-positive cells)” value in data set [2] is recorded as “No drug cytotoxicity was detectable”. Further, the “HIV nuclear migration (2-LTR circles)” value in data set [3] was “inhibits HIV-1 infection and viral nuclear migration; also recorded: dramatically inhibited HIV nuclear migration”. The “HIV DNA synthesis (viral total DNA by PCR)” value in data set [4] is given as “stimulating HIV DNA synthesis”.
